Calls of active or inactive are those of the source. The rule behind the calls is not given here.

Results on two molecules are retold here after ChEMBL document CHEMBL4765326, “Anchoring BODIPY photosensitizers enable pan-microbial photoinactivation” (Eur J Med Chem, 2020).

A short description of data set [1]: Octanol-water partition coefficient, logP of compound incubated for 24 hrs under shaking condition. In kind it is physicochemical.
Data set [2] is described as follows: Drug localization in peripheral edge of Escherichia coli at 10 uM incubated for 30 mins by fluorescent dye based confocal microscopic analysis. In kind it is ADME. Particulars: 0.5 h.
A short description of data set [3]: Drug uptake in human HaCaT cells at 5 uM measured after 10 to 30 mins by fluorescence based confocal laser scanning microscopic analysis. In kind it is ADME, cell-based. Particulars: time 10-30 min.
Data set [4] deals with HaCaT. The data set can be described thus: Phototoxicity against human HaCaT cells assessed as reduction in cell viability preincubated for 30 mins followed by irradiation with 6J/cm2 light and measured after 24 hrs by MTT assay. Particulars: light or radiation study. In kind it is cell-based. (Tetrazolium assays rely on reduction of a dye to a coloured formazan, in cell work by metabolically active cells.)

Data set [5] has as its system Staphylococcus aureus. The data set can be described thus: Antibacterial activity against methicillin resistant Staphylococcus aureus up to 80 uM by broth microdilution method. In kind it is functional, organism-based. Particulars: dose microM <=80. In general terms: Dilution methods test growth across graded concentrations, often in twofold steps.
The test system of data set [6] is Cell membrane. The data set can be described thus: Binding affinity to Staphylococcus aureus cell membrane assessed as reduction in zeta potential by zetasizer-based analysis. In kind it is subcellular.
Data set [7] relates to Staphylococcus aureus. The data set can be described thus: Antibacterial activity against Staphylococcus aureus up to 80 uM by broth microdilution method. In kind it is functional, organism-based. Particulars: dose microM <=80.
Data set [8] relates to Escherichia coli. The data set can be described thus: Antimicrobial activity against Escherichia coli incubated for 36 to 48 hrs under dark conditions. In kind it is functional, organism-based. Conditions: time 36-48 hrs.
Data set [9] has as its system Staphylococcus aureus. The data set can be described thus: Light dose-dependent antimicrobial activity against Staphylococcus aureus at 2 to 4 uM preincubated for 10 mins in dark followed by irradiation with 0.6 to 6J/cm2 light dose incubated for 36 to 48 hrs. In kind it is functional, organism-based. Conditions: dose 2-4 µM, time 2170-2890 min.
The test system of data set [10] is Staphylococcus aureus. The data set can be described thus: Binding affinity to Staphylococcus aureus cell wall assessed as bound fraction at 25 uM measured after 3 to 10 mins. Conditions: time 3-10 min.
In data set [11] the test system is Candida albicans. The data set can be described thus: Disruption of cell membrane integrity in Candida albicans at 2 uM irradiated with 6J/cm2 light followed by compound exposure for 10 mins by FL-4L/propidium iodide Live/dead staining based laser confocal microscopic analysis.
Data set [12] has as its system Escherichia coli. The data set can be described thus: Photodynamic antimicrobial activity against Escherichia coli preincubated for 10 mins in dark followed by irradiation with 6J/cm2 light and measured after incubation for 36 to 48 hrs. In kind it is functional, organism-based. Particulars: dose 2-10 µM, time 2170-2890 min.
A short description of data set [13]: Induction of singlet oxygen generation in DPBF solution assessed as singlet oxygen quantum yield irradiated with 80 mW/cm2 light by DPBF-based assay. In kind it is functional.
In data set [14] the test system is HaCaT. The data set can be described thus: Dark toxicity in human HaCaT cells assessed as reduction in cell viability incubated for 30 mins under dark conditions by MTT assay. Conditions: 0.5 h. In kind it is cell-based.
Data set [15] has as its system Cell membrane. The data set can be described thus: Disruption of cell membrane integrity in Escherichia coli at 2 uM irradiated with 6J/cm2 light followed by compound exposure for 10 mins by FL-4L/propidium iodide Live/dead staining based laser confocal microscopic analysis.
The subject of data set [16] is Escherichia coli. The data set can be described thus: Photodynamic antibacterial activity against Escherichia coli assessed as bacterial eradication preincubated for 20 mins in dark condition followed by 18 J/cm2 LED light irradiation and measured after 18 hrs by broth microdilution method. In kind it is functional. Conditions: light or radiation study, 18.33 h, time 1100 min.

Data set [17] has as its system Staphylococcus aureus. The data set can be described thus: Photodynamic antibacterial activity against Staphylococcus aureus assessed as bacterial eradication preincubated for 20 mins in dark condition followed by 18 J/cm2 LED light irradiation and measured after 18 hrs by broth microdilution method. In kind it is functional. Conditions: light or radiation study, 18.33 h, time 1100 min.

Data set [18] has as its system Staphylococcus aureus. The data set can be described thus: Antimicrobial activity against methicillin resistant Staphylococcus aureus incubated for 36 to 48 hrs under dark conditions. Particulars: time 36-48 hrs. In kind it is functional, organism-based.
Data set [19] deals with Staphylococcus aureus. The data set can be described thus: Photodynamic antibacterial activity against methicillin resistant Staphylococcus aureus assessed as bacterial eradication preincubated for 20 mins in dark condition followed by 18 J/cm2 LED light irradiation and measured after 18 hrs by broth microdilution method. In kind it is functional. Conditions: light or radiation study, 18.33 h, time 1100 min.

The test system of data set [20] is Staphylococcus aureus. The data set can be described thus: Antimicrobial activity against Staphylococcus aureus incubated for 36 to 48 hrs under dark conditions. In kind it is functional, organism-based. Particulars: time 36-48 hrs.
Data set [21] deals with Escherichia coli. The data set can be described thus: Antibacterial activity against Escherichia coli up to 80 uM by broth microdilution method. In kind it is functional, organism-based. Particulars: dose microM <=80.
In data set [22] the test system is Escherichia coli. The data set can be described thus: Light dose-dependent antimicrobial activity against Escherichia coli at 2 to 4 uM preincubated for 10 mins in dark followed by irradiation with 0.6 to 6J/cm2 light dose incubated for 36 to 48 hrs. In kind it is functional, organism-based. Particulars: dose 2-4 µM, time 2170-2890 min.
Data set [23] relates to Staphylococcus aureus. The data set can be described thus: Photodynamic antimicrobial activity against methicillin resistant Staphylococcus aureus preincubated for 10 mins in dark followed by irradiation with 6J/cm2 light and measured after incubation for 36 to 48 hrs. In kind it is functional, organism-based. Conditions: dose 2-10 µM, time 2170-2890 min.
For data set [24], the system named is Staphylococcus aureus. The data set can be described thus: Binding affinity to Staphylococcus aureus cell wall at 50 uM preincubated with 12.5 to 50 mM Ca2+ for 30 mins followed by incubation with compound for 30 mins.
Data set [25] has as its system Candida albicans. The data set can be described thus: Antifungal activity against Candida albicans up to 80 uM by broth microdilution method. Conditions: dose microM <=80. In kind it is functional, organism-based.
Data set [26] concerns Candida albicans. The data set can be described thus: Light dose-dependent antimicrobial activity against Candida albicans at 2 to 4 uM preincubated for 10 mins in dark followed by irradiation with 0.6 to 9J/cm2 light dose incubated for 36 to 48 hrs. In kind it is functional, organism-based. Particulars: dose 2-4 µM, time 2170-2890 min.
For data set [27], the system named is Cell membrane. The data set can be described thus: Disruption of cell membrane integrity in Staphylococcus aureus at 2 uM irradiated with 6J/cm2 light followed by compound exposure for 10 mins by FL-4L/propidium iodide Live/dead staining based laser confocal microscopic analysis.
In data set [28] the test system is Staphylococcus aureus. The data set can be described thus: Photodynamic antimicrobial activity against Staphylococcus aureus preincubated for 10 mins in dark followed by irradiation with 6J/cm2 light and measured after incubation for 36 to 48 hrs. In kind it is functional, organism-based. Conditions: dose 3-18 µM, time 2170-2890 min.
Data set [29] concerns Candida albicans. The data set can be described thus: Photodynamic antimicrobial activity against Candida albicans preincubated for 10 mins in dark followed by irradiation with 9J/cm2 light and measured after incubation for 36 to 48 hrs. In kind it is functional, organism-based. Conditions: dose 2-10 µM, time 2170-2890 min.
The test system of data set [30] is Candida albicans. The data set can be described thus: Binding affinity to Candida albicans cell wall at 50 uM preincubated with 12.5 to 50 mM Ca2+ for 30 mins followed by incubation with compound for 30 mins.
For data set [31], the system named is Cell membrane. The data set can be described thus: Binding affinity to Escherichia coli cell membrane assessed as reduction in zeta potential by zetasizer-based analysis. In kind it is subcellular.
Data set [32] relates to Candida albicans. The data set can be described thus: Binding affinity to Candida albicans cell wall assessed as bound fraction at 25 uM measured after 3 to 10 mins. Particulars: time 3-10 min.
The test system of data set [33] is Escherichia coli. The data set can be described thus: Binding affinity to Escherichia coli cell wall at 50 uM preincubated with 12.5 to 50 mM Ca2+ for 30 mins followed by incubation with compound for 30 mins.
Data set [34] has as its system Staphylococcus aureus. The data set can be described thus: Light dose-dependent antimicrobial activity against methicillin-resistant Staphylococcus aureus at 2 to 4 uM preincubated for 10 mins in dark followed by irradiation with 0.6 to 6J/cm2 light dose incubated for 36 to 48 hrs. In kind it is functional, organism-based. Conditions: dose 2-4 µM, time 2170-2890 min.

For data set [35], the system named is Candida albicans. The data set can be described thus: Photodynamic antifungal activity against Candida albicans assessed as fungal eradication preincubated for 20 mins in dark condition followed by 18 J/cm2 LED light irradiation and measured after 18 hrs by broth microdilution method. In kind it is functional. Conditions: light or radiation study, 18.33 h, time 1100 min.

The subject of data set [36] is Candida albicans. The data set can be described thus: Antimicrobial activity against Candida albicans incubated for 36 to 48 hrs under dark conditions. In kind it is functional, organism-based. Particulars: time 36-48 hrs.
Data set [37] concerns Escherichia coli. The data set can be described thus: Binding affinity to Escherichia coli cell wall assessed as bound fraction at 25 uM measured after 3 to 10 mins. Conditions: time 3-10 min.

Consider `CC1=CC(C)=[N+]2C1=Cc1c(C)cc(C)n1[B-]2(C#CC[N+](C)(C)C)C#CC[N+](C)(C)C.[I-].[I-]`, for which, in data set [1], the logP (commonly a log measure of how a compound divides between an organic and an aqueous phase) at 24 h was -1.97. The Drug uptake result in data set [2] and in data set [3] was “Active” in each case.

Turning to `CC1=C(I)C(C)=[N+]2C1=Cc1c(C)c(I)c(C)n1[B-]2(C#CC[N+](C)(C)C)C#CC[N+](C)(C)C.[I-].[I-]`, the IC50 (as a rule, the concentration at which inhibition is half-maximal) with HaCaT [4] is 4 µM. Further, the result in the data set on Staphylococcus aureus [5], in the data set with Staphylococcus aureus [7], with Escherichia coli [8], in the data set on Staphylococcus aureus [18], with Staphylococcus aureus [20] and in the data set with Escherichia coli [21] was inactive. Besides, the outcome in the data set on Staphylococcus aureus [24], in the data set on Candida albicans [25], with Candida albicans [30], in the data set on Escherichia coli [33] and in the data set with Candida albicans [36] was inactive. Besides, the outcome in the data set with Cell membrane [6], in the data set on Staphylococcus aureus [9], in the data set on Candida albicans [11], in the data set with Cell membrane [15], in the data set on Escherichia coli [22] and in the data set on Candida albicans [26] was Active. For the same molecule, the result in the data set on Cell membrane [27], in the data set on Cell membrane [31] and in the data set on Staphylococcus aureus [34] was Active. In [1], the logP at 24 h was -1.21. Moreover, the Activity is 85.3% in the data set with Staphylococcus aureus [10]; “Dose-dependent effect” with Escherichia coli [12]; 0.68 in data set [13]; “Non-Toxic” in the data set with HaCaT [14]; “Dose-dependent effect” in the data set on Staphylococcus aureus [23]; “Dose-dependent effect” with Staphylococcus aureus [28]. Moreover, the figures for the Activity result in the data set with Candida albicans [29], with Candida albicans [32] and in the data set with Escherichia coli [37] were “Dose-dependent effect”, 90.8% and 71%, respectively. Moreover, the MIC (usually the lowest concentration that inhibits growth of the organism) with Escherichia coli [16] turned out to be 0.625 µM; with Staphylococcus aureus [17] it was 1.25 µM; with Staphylococcus aureus [19] it was 1.25 µM; with Candida albicans [35], 1.25 µM.
